Earlier results as cited in patent US8062633B2, “Surface sanitizer for the food industry based on three new lactic acid bacteria that have antagonistic action against Listeria monocytogenes, the microorganism that causes listeriosis in humans” (Universidad Austral de Chile, priority 2009, dated 2011).

Columns and labels:
L. monocytogenes = details: 48 h of incubation
[1] = test system: Listeria monocytogenes Scott A; details: tofu stored at 10° C.

nisin
regrowth of L. monocytogenes in culture broth (L. monocytogenes): developed resistance and grew again after 48 h | development of L. monocytogenes in tofu [1]: Listeria started to grow again from the second day onward
